# Results: patent US9062124B2, “GIP-based mixed agonists for treatment of metabolic disorders and obesity” (priority 2008, dated 2015)
# Where a SMILES comes first, the peptide text is derived from it. Bridges are numbered along the chain shown (N, C = ends). [ ]: non-standard residue; d: D form. Aib = CC(C)(N)C(=O)O
# What was measured:
# Type in all cases: cell-based
# glucagon receptor = target: T1, glucagon receptor (Homo sapiens, UniProt P47871); experiment: cAMP synthesis functional assay (firefly luciferase reporter in HEK293 cells), glucagon receptor
# T1 construct: expressed in transfected cells; host or cells: HEK293
# GIP receptor = target: T2, GIP receptor (Homo sapiens, UniProt P48546); experiment: cAMP synthesis functional assay (firefly luciferase reporter in HEK293 cells), GIP receptor
# T2 construct: expressed in transfected cells; host or cells: HEK293
# T2 sequence (P48546 22-466): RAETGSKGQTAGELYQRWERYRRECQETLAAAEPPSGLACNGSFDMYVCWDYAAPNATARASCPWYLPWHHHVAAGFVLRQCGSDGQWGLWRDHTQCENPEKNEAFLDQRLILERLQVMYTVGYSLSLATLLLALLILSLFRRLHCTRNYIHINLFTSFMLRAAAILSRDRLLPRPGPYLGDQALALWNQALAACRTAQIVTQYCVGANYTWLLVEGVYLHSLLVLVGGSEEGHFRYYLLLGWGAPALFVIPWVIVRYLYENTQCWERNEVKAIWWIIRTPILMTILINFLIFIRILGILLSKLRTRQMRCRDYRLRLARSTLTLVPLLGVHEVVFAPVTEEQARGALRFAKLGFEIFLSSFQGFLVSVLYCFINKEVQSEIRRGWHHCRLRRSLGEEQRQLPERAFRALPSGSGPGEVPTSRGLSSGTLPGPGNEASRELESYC
# [1] = test system: glucagon receptor, GLP-1 receptor or GIP receptor; experiment: Agonist profile across receptors assigned from the cAMP reporter assay data; details: assigned from the in vitro EC50 data of Tables 1-4
# GLP-1 receptor = target: T3, GLP-1 receptor (Homo sapiens, UniProt P43220); experiment: cAMP synthesis functional assay (firefly luciferase reporter in HEK293 cells), GLP-1 receptor
# T3 construct: expressed in transfected cells; host or cells: HEK293
# [2] = Table 1, relative to the native hormone of the indicated receptor
# [3] = relative to the standard (Std.) EC50 of the same run
# [4] = GLP-1 Receptor EC50, nM, Table 1
# T3 sequence (P43220 24-463, species assumed): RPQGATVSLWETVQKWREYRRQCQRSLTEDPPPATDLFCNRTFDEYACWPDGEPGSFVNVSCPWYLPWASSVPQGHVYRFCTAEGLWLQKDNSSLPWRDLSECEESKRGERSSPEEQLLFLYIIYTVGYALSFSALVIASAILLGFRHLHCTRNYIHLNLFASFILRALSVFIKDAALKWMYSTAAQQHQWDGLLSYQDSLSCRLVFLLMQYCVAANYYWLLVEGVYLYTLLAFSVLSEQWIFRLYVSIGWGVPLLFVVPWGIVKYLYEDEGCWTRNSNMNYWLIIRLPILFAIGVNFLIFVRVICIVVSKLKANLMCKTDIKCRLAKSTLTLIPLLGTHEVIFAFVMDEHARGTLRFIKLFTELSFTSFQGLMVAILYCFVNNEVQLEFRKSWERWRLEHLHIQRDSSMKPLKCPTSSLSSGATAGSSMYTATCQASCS
# T1 sequence (P47871 26-477): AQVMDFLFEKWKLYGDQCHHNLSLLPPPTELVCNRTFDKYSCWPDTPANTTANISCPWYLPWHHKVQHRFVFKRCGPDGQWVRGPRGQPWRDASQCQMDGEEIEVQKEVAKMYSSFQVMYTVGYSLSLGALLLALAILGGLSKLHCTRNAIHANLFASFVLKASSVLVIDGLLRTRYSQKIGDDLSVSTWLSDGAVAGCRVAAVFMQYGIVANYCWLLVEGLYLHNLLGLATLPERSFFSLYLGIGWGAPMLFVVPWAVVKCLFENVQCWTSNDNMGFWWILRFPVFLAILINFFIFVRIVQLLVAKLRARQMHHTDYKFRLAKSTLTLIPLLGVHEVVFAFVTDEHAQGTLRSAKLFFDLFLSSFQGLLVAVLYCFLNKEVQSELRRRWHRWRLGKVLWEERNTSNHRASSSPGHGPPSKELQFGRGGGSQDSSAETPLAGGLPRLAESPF
Compound,Glucagon Receptor relative activity (glucagon receptor; [2]) [%],GIP Receptor relative activity (GIP receptor; [2]) [%],receptor activity profile (glucagon / GLP-1 / GIP agonism) [1],GLP-1 Receptor relative activity (GLP-1 receptor; [2]) [%],Glucagon Receptor relative activity (glucagon receptor; [3]) [%],GIP Receptor relative activity (GIP receptor; [3]) [%],GLP-1 Receptor relative activity (GLP-1 receptor; [3]) [%],EC50 (GLP-1 receptor; [4]) [nM],also measured
CC[C@H](C)[C@H](NC(=O)[C@H](Cc1ccccc1)NC(=O)[C@H](CCC(=O)O)NC(=O)[C@@H]1CCCCNC(=O)CC[C@H](NC(=O)[C@H](CC(=O)O)NC(=O)[C@H](CC(C)C)NC(=O)[C@H](Cc2ccc(O)cc2)NC(=O)[C@@H](NC(=O)[C@H](CO)NC(=O)[C@H](Cc2ccc(O)cc2)NC(=O)[C@H](CC(=O)O)NC(=O)[C@H](CO)NC(=O)[C@@H](NC(=O)[C@H](Cc2ccccc2)NC(=O)[C@@H](NC(=O)CNC(=O)[C@H](CCC(N)=O)NC(=O)[C@H](CO)NC(=O)[C@@H](N)Cc2ccc(O)cc2)[C@@H](C)O)[C@@H](C)O)[C@@H](C)CC)C(=O)N[C@@H](CCC(N)=O)C(=O)N[C@@H](C)C(=O)N[C@@H](C)C(=O)N1)C(=O)N[C@@H](C)C(=O)N[C@@H](Cc1c[nH]c2ccccc12)C(=O)N[C@@H](CC(C)C)C(=O)N[C@@H](CC(C)C)C(=O)N[C@@H](C)C(=O)NCC(=O)NCC(=O)N1CCC[C@H]1C(=O)N[C@@H](CO)C(=O)N[C@@H](CO)C(=O)NCC(=O)N[C@@H](C)C(=O)N1CCC[C@H]1C(=O)N1CCC[C@H]1C(=O)N1CCC[C@H]1C(=O)N[C@@H](CO)C(N)=O [mt-147] (H-YSQGTFTSDYSIYLDEQAAKEFIAWLLAGGPSSGAPPPS-NH2; lactam 16-20; N-terminus assumed),90.52,43.06,exemplary GLP-1/GIP/glucagon triagonist peptides,33.87,,,,,
CC[C@H](C)[C@H](NC(=O)[C@H](CO)NC(=O)[C@H](CCCCN)NC(=O)[C@H](CC(=O)O)NC(=O)[C@H](CO)NC(=O)[C@@H](NC(=O)[C@H](Cc1ccccc1)NC(=O)[C@@H](NC(=O)CNC(=O)[C@H](CCC(=O)O)NC(=O)C(C)(C)NC(=O)[C@@H](N)Cc1ccc(O)cc1)[C@@H](C)O)[C@@H](C)O)C(=O)N[C@@H](Cc1ccc(O)cc1)C(=O)N[C@@H](CC(C)C)C(=O)N[C@@H](CC(=O)O)C(=O)N[C@@H](CCCCN)C(=O)N[C@@H](CCC(N)=O)C(=O)N[C@@H](C)C(=O)N[C@@H](C)C(=O)NC(C)(C)C(=O)N[C@@H](CCC(=O)O)C(=O)N[C@@H](Cc1ccccc1)C(=O)N[C@H](C(=O)N[C@@H](CC(N)=O)C(=O)N[C@@H](Cc1c[nH]c2ccccc12)C(=O)N[C@@H](CC(C)C)C(=O)N[C@@H](CC(C)C)C(=O)N[C@@H](C)C(=O)NCC(N)=O)C(C)C [mt-285] (H-Y[Aib]EGTFTSDKSIYLDKQAA[Aib]EFVNWLLAG-NH2; N-terminus assumed),,,exhibited activity at only the GIP receptor,,0.23,36.43,0.75,,"EC50 (glucagon receptor; Glucagon Receptor EC50, cAMP luciferase reporter assay as in Example 16): 12.6 nM; EC50 (GLP-1 receptor; GLP-1 Receptor EC50, cAMP luciferase reporter assay as in Example 16): 0.784 nM"
CC[C@H](C)[C@H](NC(=O)[C@H](CO)NC(=O)[C@H](Cc1ccc(O)cc1)NC(=O)[C@H](CC(=O)O)NC(=O)[C@H](CO)NC(=O)[C@@H](NC(=O)[C@H](Cc1ccccc1)NC(=O)[C@@H](NC(=O)CNC(=O)[C@H](CCC(N)=O)NC(=O)C(C)(C)NC(=O)[C@@H](N)Cc1ccc(O)cc1)[C@@H](C)O)[C@@H](C)O)C(=O)N[C@@H](Cc1ccc(O)cc1)C(=O)N[C@@H](CC(C)C)C(=O)N[C@@H](CC(=O)O)C(=O)N[C@@H](CCC(=O)O)C(=O)N[C@@H](CCC(N)=O)C(=O)N[C@@H](C)C(=O)N[C@@H](C)C(=O)NC(C)(C)C(=O)N[C@@H](CCC(=O)O)C(=O)N[C@@H](Cc1ccccc1)C(=O)N[C@H](C(=O)N[C@@H](CC(N)=O)C(=O)N[C@@H](Cc1c[nH]c2ccccc12)C(=O)N[C@@H](CC(C)C)C(=O)N[C@@H](CC(C)C)C(=O)N[C@@H](C)C(=O)NCC(=O)NCC(=O)N1CCC[C@H]1C(=O)N[C@@H](CO)C(=O)N[C@@H](CO)C(=O)NCC(=O)N[C@@H](C)C(=O)N1CCC[C@H]1C(=O)N1CCC[C@H]1C(=O)N1CCC[C@H]1C(=O)N[C@@H](CO)C(=O)N[C@@H](CS)C(N)=O)C(C)C [mt-251] (H-Y[Aib]QGTFTSDYSIYLDEQAA[Aib]EFVNWLLAGGPSSGAPPPSC-NH2; N-terminus assumed),,,exhibited activity of a GLP-1/GIP co-agonist,,,,,,Glucagon Receptor relative activity (glucagon receptor; Table 2): 1.52%; GIP Receptor relative activity (GIP receptor; Table 2): 57.58%; GLP-1 Receptor relative activity (GLP-1 receptor; Table 2): 140.00%
CC[C@H](C)[C@H](NC(=O)[C@H](CO)NC(=O)[C@H](Cc1ccc(O)cc1)NC(=O)[C@H](CC(=O)O)NC(=O)[C@H](CO)NC(=O)[C@@H](NC(=O)[C@H](Cc1ccccc1)NC(=O)[C@@H](NC(=O)CNC(=O)[C@H](CCC(N)=O)NC(=O)C(C)(C)NC(=O)[C@@H](N)Cc1ccc(O)cc1)[C@@H](C)O)[C@@H](C)CC)C(=O)N[C@@H](Cc1ccc(O)cc1)C(=O)N[C@@H](CC(C)C)C(=O)N[C@@H](CC(=O)O)C(=O)N[C@H]1CCC(=O)NCCCC[C@@H](C(=O)N[C@@H](CCC(=O)O)C(=O)N[C@@H](Cc2ccccc2)C(=O)N[C@H](C(=O)N[C@@H](CS)C(=O)N[C@@H](Cc2c[nH]c3ccccc23)C(=O)N[C@@H](CC(C)C)C(=O)N[C@@H](CC(C)C)C(=O)N[C@@H](C)C(=O)NCC(N)=O)C(C)C)NC(=O)[C@H](C)NC(=O)[C@H](C)NC(=O)[C@H](CCC(N)=O)NC1=O [mt-177] (H-Y[Aib]QGTFISDYSIYLDEQAAKEFVCWLLAG-NH2; lactam 16-20; N-terminus assumed),38.95,19.30,exemplary GIP/glucagon co-agonist peptides,0.10,,,,21,"EC50 (glucagon receptor; Glucagon Receptor EC50, nM, Table 1): 0.095 nM; EC50 (GIP receptor; GIP Receptor EC50, nM, Table 1): 0.114 nM"
CC[C@H](C)[C@H](NC(=O)[C@H](CO)NC(=O)[C@H](Cc1ccc(O)cc1)NC(=O)[C@H](CC(=O)O)NC(=O)[C@H](CO)NC(=O)[C@@H](NC(=O)[C@H](Cc1ccccc1)NC(=O)[C@@H](NC(=O)CNC(=O)[C@H](CCC(=O)O)NC(=O)[C@H](C)NC(=O)[C@@H](N)Cc1ccc(O)cc1)[C@@H](C)O)[C@@H](C)O)C(=O)N[C@@H](Cc1ccc(O)cc1)C(=O)N[C@@H](CC(C)C)C(=O)N[C@@H](CC(=O)O)C(=O)N[C@H]1CCC(=O)NCCCC[C@@H](C(=O)N[C@@H](CCC(=O)O)C(=O)N[C@@H](Cc2ccccc2)C(=O)N[C@H](C(=O)N[C@@H](CC(N)=O)C(=O)N[C@@H](Cc2c[nH]c3ccccc23)C(=O)N[C@@H](CC(C)C)C(=O)N[C@@H](CC(C)C)C(=O)N[C@@H](C)C(=O)NCC(=O)NCC(=O)N2CCC[C@H]2C(=O)N[C@@H](CO)C(=O)N[C@@H](CO)C(=O)NCC(=O)N[C@@H](C)C(=O)N2CCC[C@H]2C(=O)N2CCC[C@H]2C(=O)N2CCC[C@H]2C(=O)N[C@@H](CO)C(N)=O)C(C)C)NC(=O)[C@H](C)NC(=O)[C@H](C)NC(=O)[C@H](CCC(N)=O)NC1=O [mt-149] (H-YAEGTFTSDYSIYLDEQAAKEFVNWLLAGGPSSGAPPPS-NH2; lactam 16-20; N-terminus assumed),0.64,91.18,exemplary GLP-1/GIP co-agonist peptides,97.53,,,,0.036,
CC[C@H](C)[C@H](NC(=O)[C@H](CO)NC(=O)[C@H](Cc1ccc(O)cc1)NC(=O)[C@H](CC(=O)O)NC(=O)[C@H](CO)NC(=O)[C@H](CO)NC(=O)[C@H](Cc1ccccc1)NC(=O)[C@@H](NC(=O)CNC(=O)[C@H](CCC(N)=O)NC(=O)C(C)(C)NC(=O)[C@@H](N)Cc1ccc(O)cc1)[C@@H](C)O)C(=O)N[C@@H](Cc1ccc(O)cc1)C(=O)N[C@@H](CC(C)C)C(=O)N[C@@H](CC(=O)O)C(=O)N[C@@H](CCCCN)C(=O)N[C@@H](CCC(N)=O)C(=O)N[C@@H](C)C(=O)N[C@@H](C)C(=O)NC(C)(C)C(=O)N[C@@H](CCC(=O)O)C(=O)N[C@@H](Cc1ccccc1)C(=O)N[C@H](C(=O)N[C@@H](CC(N)=O)C(=O)N[C@@H](Cc1c[nH]c2ccccc12)C(=O)N[C@@H](CC(C)C)C(=O)N[C@@H](CC(C)C)C(=O)N[C@@H](C)C(=O)NCC(=O)NCC(=O)N1CCC[C@H]1C(=O)N[C@@H](CO)C(=O)N[C@@H](CO)C(=O)NCC(=O)N[C@@H](C)C(=O)N1CCC[C@H]1C(=O)N1CCC[C@H]1C(=O)N1CCC[C@H]1C(=O)N[C@@H](CO)C(=O)N[C@@H](CS)C(N)=O)C(C)C [mt-324] (H-Y[Aib]QGTFSSDYSIYLDKQAA[Aib]EFVNWLLAGGPSSGAPPPSC-NH2; N-terminus assumed),,,"exhibited activity at the GIP, GLP-1, and glucagon receptors",,6.41,30.23,9.68,,
